Reference: patent publication US20070225351A1, “Methods and compositions for controlling body weight and appetite” (priority 2002, published 2007)

Key:
[1] = molecular target: norepinephrine transporter (Rattus norvegicus, UniProt Q63380); conditions: from Table 1
Procedure: Reactions were carried out in 50 mM TRIS-HCl (pH 7.4), containing 300 mM NaCl and 5 mM KCl at 0° C. to 4° C. for 4 hours. The reaction was terminated by rapid vacuum filtration onto glass fiber filters. Radioactivity trapped in the filters was determined and compared to control values in order to ascertain the interactions of the test compound with the norepinephrine uptake site.

[2] = in vivo; type: in vivo
Procedure: Eighteen male and eighteen female beagle dogs were received from Ridglan Farms, Mt. Horeb, Wis. […] Each group consisted of four males and four females. All animals/sex/group were scheduled for the primary necropsy at the end of the 13-week treatment period.
The animals were observed twice daily for mortality and moribundity. Clinical examinations were performed daily at the time of dosing and approximately 1-2 and approximately 3 hours following dose administration. Detailed physical examinations were performed weekly. Clinical pathology evaluations (hematology, serum chemistry and urinalysis) were performed prior to the initiation of dose administration (study week-1) and prior to the scheduled necropsy (study week 13). Individual body weights were recorded weekly, beginning approximately two weeks prior to test article administration (study week-2). Mean body weights and mean body weight changes were calculated for each corresponding interval. Final body weights (fasted) were recorded prior to the scheduled necropsy. […] Gross lesions were also examined from the 2.0 and 6.0 mg/kg/day groups.

Chain of norepinephrine transporter (Q63380 1-617): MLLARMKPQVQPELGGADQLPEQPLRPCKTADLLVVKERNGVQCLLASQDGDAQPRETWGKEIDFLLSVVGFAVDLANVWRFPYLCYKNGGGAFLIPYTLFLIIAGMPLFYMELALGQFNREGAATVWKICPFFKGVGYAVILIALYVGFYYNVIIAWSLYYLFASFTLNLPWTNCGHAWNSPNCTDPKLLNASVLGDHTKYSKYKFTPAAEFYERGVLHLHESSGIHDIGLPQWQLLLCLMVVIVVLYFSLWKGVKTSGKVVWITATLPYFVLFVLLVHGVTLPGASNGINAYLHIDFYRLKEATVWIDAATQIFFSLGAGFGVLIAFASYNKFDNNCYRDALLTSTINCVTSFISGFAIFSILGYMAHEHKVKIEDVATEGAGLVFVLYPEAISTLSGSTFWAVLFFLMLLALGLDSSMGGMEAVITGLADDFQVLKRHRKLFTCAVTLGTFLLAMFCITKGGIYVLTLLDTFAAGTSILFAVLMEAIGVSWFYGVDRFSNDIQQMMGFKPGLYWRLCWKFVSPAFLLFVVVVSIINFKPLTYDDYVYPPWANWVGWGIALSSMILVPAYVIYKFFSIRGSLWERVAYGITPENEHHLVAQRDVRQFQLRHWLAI

Cl.Clc1ccc([C@@]23CNC[C@@H]2C3)cc1Cl (single isomer, unassigned) [(+)-1-(3,4-dichlorophenyl)-3-azabicyclo[3.1.0]hexane hydrochloride]
affinity for the norepinephrine uptake site compared with the (±) compound [1]: significantly greater affinity
mean total cumulative body weight change, lower than control ([2]; female dogs, 20 mg/kg/day, end of 13-week study): 65%
mean food consumption, lower than control ([2]; female dogs, 20 mg/kg/day, first week of dose administration): 23%
mean body weight, lower than control ([2]; female dogs, 20 mg/kg/day, study week 13): 9%
weekly food consumption, MEAN ([2]; female dogs, 2.0 MG/KG/DAY group, WEEK −1 TO 0 (before dosing)): 295. C/ANIMAL/DAY
weekly food consumption, MEAN ([2]; female dogs, 2.0 MG/KG/DAY, WEEK 0 TO 1): 291. C/ANIMAL/DAY
weekly food consumption, MEAN ([2]; female dogs, 2.0 MG/KG/DAY, WEEK 1 TO 2): 319. C/ANIMAL/DAY
weekly food consumption, MEAN ([2]; female dogs, 2.0 MG/KG/DAY, WEEK 2 TO 3): 361. C/ANIMAL/DAY
weekly food consumption, MEAN ([2]; female dogs, 2.0 MG/KG/DAY, WEEK 3 TO 4): 358. C/ANIMAL/DAY
weekly food consumption, MEAN ([2]; female dogs, 2.0 MG/KG/DAY, WEEK 4 TO 5): 369. C/ANIMAL/DAY
weekly food consumption, MEAN ([2]; female dogs, 2.0 MG/KG/DAY, WEEK 5 TO 6): 360. C/ANIMAL/DAY
weekly food consumption, MEAN ([2]; female dogs, 2.0 MG/KG/DAY, WEEK 6 TO 7): 393. C/ANIMAL/DAY
weekly food consumption, MEAN ([2]; female dogs, 2.0 MG/KG/DAY, WEEK 7 TO 8): 360. C/ANIMAL/DAY
weekly food consumption, MEAN ([2]; female dogs, 2.0 MG/KG/DAY, WEEK 8 TO 9): 383. C/ANIMAL/DAY
weekly food consumption, MEAN ([2]; female dogs, 2.0 MG/KG/DAY, WEEK 9 TO 10): 375. C/ANIMAL/DAY
weekly food consumption, MEAN ([2]; female dogs, 2.0 MG/KG/DAY, WEEK 10 TO 11): 389. C/ANIMAL/DAY
weekly food consumption, MEAN ([2]; female dogs, 2.0 MG/KG/DAY, WEEK 12 TO 13): 355. C/ANIMAL/DAY
weekly food consumption, MEAN ([2]; female dogs, 6.0 MG/KG/DAY group, WEEK −1 TO 0 (before dosing)): 275. C/ANIMAL/DAY
weekly food consumption, MEAN ([2]; female dogs, 6.0 MG/KG/DAY, WEEK 0 TO 1): 247. C/ANIMAL/DAY
weekly food consumption, MEAN ([2]; female dogs, 6.0 MG/KG/DAY, WEEK 1 TO 2): 288. C/ANIMAL/DAY
weekly food consumption, MEAN ([2]; female dogs, 6.0 MG/KG/DAY, WEEK 2 TO 3): 307. C/ANIMAL/DAY
weekly food consumption, MEAN ([2]; female dogs, 6.0 MG/KG/DAY, WEEK 3 TO 4): 307. C/ANIMAL/DAY
weekly food consumption, MEAN ([2]; female dogs, 6.0 MG/KG/DAY, WEEK 4 TO 5): 350. C/ANIMAL/DAY
weekly food consumption, MEAN ([2]; female dogs, 6.0 MG/KG/DAY, WEEK 5 TO 6): 374. C/ANIMAL/DAY
weekly food consumption, MEAN ([2]; female dogs, 6.0 MG/KG/DAY, WEEK 6 TO 7): 381. C/ANIMAL/DAY
weekly food consumption, MEAN ([2]; female dogs, 6.0 MG/KG/DAY, WEEK 7 TO 8): 356. C/ANIMAL/DAY
weekly food consumption, MEAN ([2]; female dogs, 6.0 MG/KG/DAY, WEEK 8 TO 9): 368. C/ANIMAL/DAY
weekly food consumption, MEAN ([2]; female dogs, 6.0 MG/KG/DAY, WEEK 9 TO 10): 360. C/ANIMAL/DAY
weekly food consumption, MEAN ([2]; female dogs, 6.0 MG/KG/DAY, WEEK 10 TO 11): 367. C/ANIMAL/DAY
weekly food consumption, MEAN ([2]; female dogs, 6.0 MG/KG/DAY, WEEK 11 TO 12): 357. C/ANIMAL/DAY
weekly food consumption, MEAN ([2]; female dogs, 6.0 MG/KG/DAY, WEEK 12 TO 13): 331. C/ANIMAL/DAY
weekly food consumption, MEAN ([2]; female dogs, 20 MG/KG/DAY group, WEEK −1 TO 0 (before dosing)): 275. C/ANIMAL/DAY
weekly food consumption, MEAN ([2]; female dogs, 20 MG/KG/DAY, WEEK 0 TO 1): 212.* C/ANIMAL/DAY
weekly food consumption, MEAN ([2]; female dogs, 20 MG/KG/DAY, WEEK 1 TO 2): 295. C/ANIMAL/DAY
weekly food consumption, MEAN ([2]; female dogs, 20 MG/KG/DAY, WEEK 2 TO 3): 314. C/ANIMAL/DAY
weekly food consumption, MEAN ([2]; female dogs, 20 MG/KG/DAY, WEEK 3 TO 4): 337. C/ANIMAL/DAY
weekly food consumption, MEAN ([2]; female dogs, 20 MG/KG/DAY, WEEK 4 TO 5): 356. C/ANIMAL/DAY
weekly food consumption, MEAN ([2]; female dogs, 20 MG/KG/DAY, WEEK 5 TO 6): 331. C/ANIMAL/DAY
weekly food consumption, MEAN ([2]; female dogs, 20 MG/KG/DAY, WEEK 6 TO 7): 328. C/ANIMAL/DAY
weekly food consumption, MEAN ([2]; female dogs, 20 MG/KG/DAY, WEEK 7 TO 8): 325. C/ANIMAL/DAY
weekly food consumption, MEAN ([2]; female dogs, 20 MG/KG/DAY, WEEK 8 TO 9): 375. C/ANIMAL/DAY
weekly food consumption, MEAN ([2]; female dogs, 20 MG/KG/DAY, WEEK 9 TO 10): 322. C/ANIMAL/DAY
weekly food consumption, MEAN ([2]; female dogs, 20 MG/KG/DAY, WEEK 10 TO 11): 350. C/ANIMAL/DAY
weekly food consumption, MEAN ([2]; female dogs, 20 MG/KG/DAY, WEEK 11 TO 12): 305. C/ANIMAL/DAY
weekly food consumption, MEAN ([2]; female dogs, 20 MG/KG/DAY, WEEK 12 TO 13): 249. C/ANIMAL/DAY
mean total cumulative body weight change, lower than control ([2]; male dogs, 20 mg/kg/day, end of 13-week study (body weight loss)): 120%
